Laboratory results from patent US20110046070A1, “GENE EXPRESSION INHIBITOR SELECTIVE FOR MATRIX METALLOPROTEINASE-9 GENE” (priority 2008, published 2011).

Key:
MDA-MB-231 cells = assay: Growth inhibition assay, MDA-MB-231; assay type: cell-based, human; details: MDA-MB-231, 0 μM to 30 μM, 72 hours, WST-8
Procedure: Cell growth inhibition test was conducted using MDA-MB-231 and HeLa cells. The HeLa cells were inoculated at a concentration of 2500 cells/well to a 96-well microtiter plate and incubated for 24 hours in 100 μl of Dulbecco's modified Eagle medium (DMEM) containing 10% fetal bovine serum (Invitrogen). Then, after medium replacement, the cells were cultured for 72 hours in a medium supplemented with 10% fetal bovine serum containing 0 μM to 30 μM (0 μM, 0.3 μM, 1 μM, 3 μM, 10 μM and 30 μM) polyamide HMMP9NFκβ, and 10 μl of live cell counting reagent SF (Nacalai Tesque, Inc.) was added thereto, followed by 2-hour color reaction. Absorbance was measured at 450 nm using an ARVO microtiter plate reader. This experiment was conducted by modified MTT assay (WST-8 ™: Nacalai Tesque, Inc.) using water-soluble formazan.

[1] = system: MMP-9 gelatin degradation activity in culture supernatants of MDA-MB-231 cells; assay: Zymography assay using gelatin as a substrate; assay type: cell-based, human; details: 48 hours, MDA-MB-231 supernatant; for inhibition at 1 µM: read-out: inhibition of gelatin degradation activity compared with the control
Procedure: Proteins collected from culture supernatants of MDA-MB-231 cells were assayed using Novex (registered trademark) zymogram gelatin gel and XCell SureLock™ Mini-cell (Invitrogen Life Technologies, Corp.). The polyamides of the present invention were separately added at various concentrations to 2.5×10^5 cells. After 48-hour incubation, the supernatants were collected. Proteins from each sample were mixed with Novex (registered trademark) Tris-glycine SDS sample buffer (2×) and separated on a 10% zymogram gelatin gel. The gel was washed with a renaturing buffer and a developing buffer according to the manufacturer's manual. Then, the gel was digitized.

[2] = system: human uterine cervix cancer HeLa cells; assay: Wound-healing migration assay, HeLa; assay type: cell-based; details: 48 hours after the damage, various concentrations
Procedure: A human breast cancer MDA-MB-231 cell strain was used. The cells were cultured at 37° C. in a humid environment containing 5% CO^2 in an RPMI1640 medium (Sigma-Aldrich Corp., St. Louis, Mo., USA) supplemented with 100 μg/ml streptomycin, 100 units/ml penicillin and 10% fetal bovine serum (FBS) (Sigma-Aldrich Corp.). Human uterine cervix cancer HeLa cells were cultured in a Dulbecco's modified Eagle medium (DMEM, Invitrogen Life Technologies, Corp., Carlsbad, Calif.) containing 10% FBS and 2 mM L-glutamine.
To assay cellular migration in the process of wound healing, 3×10^5 cells were inoculated to each well of an 8-well chamber slide, and the cell layer was damaged using a plastic micropipette when the cells reached confluence. The medium and debris were removed by suction, and 100 μl of a fresh medium containing various polyamides was replaced therefor. 48 hours after the damage, the cells were fixed with Diff-Quik solution (SYSMEX INTERNATIONAL REAGENTS CO., LTD., Kobe, Japan), then stained, and photographed using a phase-contrast microscope.

[3] = system: MMP-9 mRNA in MDA-MB-231 cells; assay: Real-time RT-PCR assay (mRNA expression assay); assay type: cell-based, human; details: 48 hours, MDA-MB-231, vs DMSO control, normalized to GAPDH
Procedure: MDA-MB-231 cells were treated with each polyamide of the present invention at various concentrations. 48 hours after the treatment, cell fractions were subjected to RNA separation using a TRIzol reagent (Invitrogen Life Technologies, Corp.) according to the manufacturer's manual. RNA was treated with DNase prior to cDNA synthesis. Complementary DNA strands were synthesized by reverse transcription using SuperScript™ First-Strand kit (Invitrogen Life Technologies, Corp.). In real-time RT-PCR (Thermal cycler Dice Real Time system TP800, Takara Bio Inc., Japan), SYBR Premix Ex Taq Kit (Takara Bio Inc.) was used. Primers for HMMP9AP1 (forward, 5′-[…]-3′, SEQ ID NO: 12; reverse 5′-[…]-3′, SEQ ID NO: 13; 236 bp) and internal standard human endogenous glyceraldehyde-3-phosphate dehydrogenase (GADPH; forward, 5′-[…]-3′, SEQ ID NO: 14; reverse, 5′-TGGTGAAGACGCCAGTGGA-3′, SEQ ID NO: 15; 138 bp) were used. Moreover, primers for HMMP9NFKκβ (forward, 5′-[…]-3′, SEQ ID NO: 16; reverse, 5′-[…]-3′, SEQ ID NO: 17; 236 bp) and internal standard human endogenous glyceraldehyde-3-phosphate dehydrogenase (GADPH; forward, 5′-[…]-3′, SEQ ID NO: 18; reverse, 5′-TGGTGAAGACGCCAGTGGA-3′, SEQ ID NO: 19; 138 bp) were used. 25 μl of two-step RT-PCR mixture consists of 12.5 μl of SYBR Premix Ex TAq, 0.5 μl each of forward and reverse primers, 10.5 μl of RNase-free water and 1 μl of template cDNA. The real-time cycle conditions were performed by a reaction system involving 95° C. for 10 seconds, 95° C. for 5 seconds and 60° C. for 30 seconds. The quantification of the MMP-9 gene was normalized by comparison with GAPDH expression.

Row | Compound | number of live cells (growth inhibition) (MDA-MB-231 cells) | inhibition of gelatin degradation activity (enzymatic activity of MMP-9) ([1]; 10 μM) | inhibition at 1 µM ([1]; Homo sapiens) [%] | migration of HeLa cells [2] | decrease of the expression level of MMP-9 mRNA ([3]; 0.3 μM) [%] | decrease of the expression level of MMP-9 mRNA ([3]; 1 μM) [%] | decrease of the expression level of MMP-9 mRNA ([3]; 3 μM) [%] | decrease of the expression level of MMP-9 mRNA ([3]; 10 μM) [%] | inhibition at 10 µM ([1]; Homo sapiens, 10 μM, read-out: inhibition of gelatin degradation activity (enzymatic activity of MMP-9)) [%]
1 | CC(=O)Nc1cn(C)c(C(=O)Nc2cc(C(=O)NCCC(=O)Nc3cn(C)c(C(=O)Nc4cc(C(=O)Nc5cc(C(=O)NCCCC(=O)Nc6cn(C)c(C(=O)Nc7cn(C)c(C(=O)Nc8cc(C(=O)NCCC(=O)Nc9cn(C)c(C(=O)Nc%10cc(C(=O)NCCC(=O)NCCCN(C)C)n(C)c%10)n9)n(C)c8)n7)n6)n(C)c5)n(C)c4)n3)n(C)c2)n1 [HMMP9AP1] | decreased the number of live cells | almost completely | 50 | inhibited the migrations | 84 | 54 | 38 | 26 | –
2 | CC(=O)Nc1cc(C(=O)Nc2cc(C(=O)NCCC(=O)Nc3cc(C(=O)Nc4cc(C(=O)NCCCC(=O)Nc5cn(C)c(C(=O)Nc6cn(C)c(C(=O)NCCC(=O)Nc7cc(C(=O)Nc8cc(C(=O)NCCC(=O)NCCCN(C)C)n(C)c8)n(C)c7)n6)n5)n(C)c4)n(C)c3)n(C)c2)n(C)c1 [HMMP9NFκβ] | decreased the number of live cells in a concentration-dependent manner | – | 62 | inhibit the migration of HeLa cells in a concentration-dependent manner | 86 | 68 | 40 | 28 | 82
